We go through 9 compounds from patent publication US20180177890A1, “LIGAND-CYTOTOXIC DRUG CONJUGATE, PREPARATION METHOD THEREOF, AND USE THEREOF” (priority 2015, published 2018).

One assay concerns HepG2 tumor cells. Description: In vitro tumor cell proliferation inhibition test (CCK-8), HepG2. The format is cell-based. The note with it: Homo sapiens, HepG2, 76 hours incubation. The procedure: (§1) The objective of this experiment is to test the in vitro inhibition effect of the formula (D) according to the present invention on the proliferation of HepG2 tumor cells (human hepatocellular carcinoma cells, Chinese Academy of Sciences cell bank, No. #TCHu 72) and A549 tumor cells (human lung adenocarcinoma, Chinese Academy of Sciences cell bank, No. #TCHu150). The cells were treated with different concentrations of the compound in vitro. After 76 hours incubation, the cell proliferation was detected by CCK-8 reagent (Cell Counting Kit-8, Dojindo, No. CK04), and the activity of the compound in vitro was evaluated according to the IC50 value.
(§2) The following is an example of a method for in vitro proliferation inhibition test of HepG2 cells for the purpose of exemplifying the test of the compounds according to the present invention for the proliferation inhibitory activity on tumor cells in vitro. This method is also applicable to, but not limited to, the in vitro proliferation inhibition tests on other tumor cells.
HepG2 cells in logarithmic growth phase were washed with PBS (phosphate buffer, ThermoFisher) once, and added with 2-3 ml trypsin (0.25% trypsin-EDTA (1×), Gibico, Life Technologies) to digest for 2-3 min. Then, 10-15 ml of cell culture medium (DMEM/F12 medium, Invitrogen; 10% (v/v)) was added after the cells were completely digested. The digested HepG2 cells were eluted, and centrifuged at 1000 rpm for 3 min. The supernatant was discarded, and then 10-20 ml of cell culture medium were added to resuspend the cells to prepare a single cell suspension.
The HepG2 single cell suspension was mixed and the cell density was adjusted to 6×10^4 cells/ml with cell culture medium. The density-adjusted cell suspension was mixed uniformly and added to a 96-well cell culture plate at 100 μl/well. The plates were incubated in a 5% CO2 incubator at 37° C. for 18-20 hours.
(§3) The compound was dissolved with DMSO (dimethylsulfoxide, Shanghai Titan Technology Co., Ltd.) to prepare a storage solution having an initial concentration of 10 mM.
(§4) 10 μl of 10 mM compound was added to the wells of the first column of a U-shaped bottom 96-well plate (sample plate 1), and 90 μl of DMSO was added to each compound sample well of the first column, i.e., the stock solution was diluted 10 times as the starting point. Then, 3-fold gradient dilutions were performed, with each compound concentration […]. The diluent was DMSO solution. 60 μl of 100% DMSO was added to 12th column and 20 μl of 1 mM positive drug control was added to 11th column.
(§5) In a new U-shaped bottom 96-well plate (sample plate 2), each sample from the sample plate 1 was diluted 20 times with the complete medium. Then, in another new U-shaped bottom 96-well plate (sample plate 3), each well sample from the sample plate 2 was subjected to a final 10-fold dilution.
(§6) After the cell pre-culture was completed, the 96-well cell culture plate was removed and the supernatant was discarded. Each sample dilution in the 96-well sample plate 3 was successively added to a 96-well cell culture plate at 100 μl/well. Each compound sample was tested in duplicate at each concentration. […] After completion of the loading operation, the 96-well cell culture plate was incubated at 37° C. for about 76 hours in a 5% CO2 incubator.
(§7) The 96-well cell culture plate was taken and CCK-8 was added to each well at […]. The cell culture plate was gently pat and mixed for more than 10 times and incubated at 37° C. for 2 hours in a 5% CO2 incubator.
(§8) The 96-well cell culture plate was taken and placed in a microplate reader (PerkinElmer, VICTOR 3) and the absorbance at 450 nm was measured using the microplate reader.
(§9) Data was analyzed with Microsoft Excel and Graphpad Prism 5.

The test system of the next assay is A549 tumor cells. Description: In vitro tumor cell proliferation inhibition test (CCK-8), A549. The note with it: Homo sapiens, A549, 76 hours incubation. The format is cell-based. The procedure: as §1, §2, §3, §4, §5, §6, §7, §8
In accordance with the above procedure, the inhibition activity of the compound according to the present invention on the proliferation of A549 tumor cells in vitro was tested. The cell culture medium was also DMEM/F12.
as §9

Assay [1] deals with NCI-N87 cells (HER2 overexpressing human gastric cancer cells). The assay can be described thus: Tumor inhibition rate test of NCI-N87 transplanted tumor in nude mice. The format is in vivo. The settings on record: 60 mg/kg (first dose doubling), IV. The text has this:
To evaluate and compare the effect of antibody-cytotoxin conjugates according to the present invention on transplanted tumors of NCI-N87 cells (HER2 overexpressing human gastric cancer cells, ATCC, CRL-5822) in nude mice. […] Preparation method: all prepared with physiological saline. […] Feeding environment: SPF level. […] T/C (%)=(T−T0)/(C−C0)×100%, wherein T and C represent the tumor volume at the end of the experiment; T0 and C0 represent the tumor volume at the beginning of the experiment. […] The number of mice at the beginning of the experiment was as follows: Control group n=12, Treatment group n=6.

Numbered stars: 1 amine (or outer) side, 2 acyl side, 3 side chain; on linkers, the order of the positions; unused ones are H or OH. Square brackets hold non-standard residues; d marks the D form. Peptide text beside a SMILES is read from it. X1 = CO[C@H]([C@@H](C)C(=O)[*:2])[C@@H]1C[C@@H]2C[C@@H]2N1[*:1]; Dolaproine = CO[C@@H]([C@@H]1CCCN1)[C@@H](C)C(=O)O; Phe(2,4-Cl2) = N[C@@H](Cc1ccc(Cl)cc1Cl)C(=O)O; Dil = CC[C@H](C)[C@H](NC)[C@@H](CC(=O)O)OC; Phe(3-Cl) = N[C@@H](Cc1cccc(Cl)c1)C(=O)O; Phe(3-F) = N[C@@H](Cc1cccc(F)c1)C(=O)O; Phe(4-Me) = Cc1ccc(C[C@H](N)C(=O)O)cc1; Phe(2-F) = N[C@@H](Cc1ccccc1F)C(=O)O; Phe(2-Me) = Cc1ccccc1C[C@H](N)C(=O)O; 2Thi = N[C@@H](Cc1cccs1)C(=O)O; NMeV = CN[C@H](C(=O)O)C(C)C

For orientation: IC50 means the concentration that gives 50% inhibition. A higher IC50 goes with weaker potency in that assay.

With `CC[C@H](C)[C@@H]([C@@H](CC(=O)N1[C@H]2C[C@H]2C[C@H]1[C@H](OC)[C@@H](C)C(=O)N[C@@H](Cc1cccs1)C(=O)O)OC)N(C)C(=O)[C@@H](NC(=O)[C@@H](NC)C(C)C)C(C)C` [Compound 16, (S)-2-((2R,3R)-3-((1S,3S,5S)-2-((3R,4S,5S)-4-((S)—N,3-dimethyl-2-((S)-3-methyl-2-(methylamino)butanamido)butanamido)-3-methoxy-5-methylheptanoyl)-2-azabicyclo[3.1.0]hexan-3-yl)-3-methoxy-2-methylpropanamido)-3-(thiophen-2-yl)propanoic acid] (H-[NMeV]V[Dil][X1][2Thi]-OH), the IC50 in the assay with HepG2 tumor cells was 13.9 nM; with A549 tumor cells, 53 nM.
Consider `CC[C@H](C)[C@@H]([C@@H](CC(=O)N1CCC[C@H]1[C@H](OC)[C@@H](C)C(=O)N[C@@H](Cc1ccccc1F)C(=O)O)OC)N(C)C(=O)[C@@H](NC(=O)[C@@H](NC)C(C)C)C(C)C` [Compound 25, (S)-2-((2R,3R)-3-((S)-1-((3R,4S,5S)-4-((S)—N,3-dimethyl-2-((S)-3-methyl-2-(methylamino)butanamido)butanamido)-3-methoxy-5-methylheptanoyl)pyrrolidin-2-yl)-3-methoxy-2-methylpropanamido)-3-(2-fluorophenyl)propanoic acid] (H-[NMeV]V[Dil][Dolaproine][Phe(2-F)]-OH), for which the IC50 in the assay with HepG2 tumor cells was 175 nM; in the assay on A549 tumor cells, 200 nM.
Taken in the same sequence, the figures for `CC[C@H](C)[C@@H]([C@@H](CC(=O)N1CCC[C@H]1[C@H](OC)[C@@H](C)C(=O)N[C@@H](Cc1ccc(C)cc1)C(=O)O)OC)N(C)C(=O)[C@@H](NC(=O)[C@@H](NC)C(C)C)C(C)C` [Compound 29, (S)-2-((2R,3R)-3-((S)-1-((3R,4S,5S)-4-((S)—N,3-dimethyl-2-((S)-3-methyl-2-(methylamino)butanamido)butanamido)-3-methoxy-5-methylheptanoyl)pyrrolidin-2-yl)-3-methoxy-2-methylpropanamido)-3-(p-tolyl)propanoic acid] (H-[NMeV]V[Dil][Dolaproine][Phe(4-Me)]-OH) were 58.6 nM and 1.8 nM.
Taken in the same sequence, the figures for `CC[C@H](C)[C@@H]([C@@H](CC(=O)N1CCC[C@H]1[C@H](OC)[C@@H](C)C(=O)N[C@@H](Cc1cccc(Cl)c1)C(=O)O)OC)N(C)C(=O)[C@@H](NC(=O)[C@@H](NC)C(C)C)C(C)C` [Compound 31, (S)-3-(3-chlorophenyl)-2-((2R,3R)-3-((S)-1-((3R,4S,5S)-4-((S)—N,3-dimethyl-2-((S)-3-methyl-2-(methylamino)butanamido)butanamido)-3-methoxy-5-methylheptanoyl)pyrrolidin-2-yl)-3-methoxy-2-methylpropanamido)propanoic acid] (H-[NMeV]V[Dil][Dolaproine][Phe(3-Cl)]-OH) were 100 nM and 130 nM.
Taken in the same sequence, the figures for `CC[C@H](C)[C@@H]([C@@H](CC(=O)N1CCC[C@H]1[C@H](OC)[C@@H](C)C(=O)N[C@@H](Cc1cccc(F)c1)C(=O)O)OC)N(C)C(=O)[C@@H](NC(=O)[C@@H](NC)C(C)C)C(C)C` [Compound 32, (S)-2-((2R,3R)-3-((S)-1-((3R,4S,5S)-4-((S)—N,3-dimethyl-2-((S)-3-methyl-2-(methylamino)butanamido)butanamido)-3-methoxy-5-methylheptanoyl)pyrrolidin-2-yl)-3-methoxy-2-methylpropanamido)-3-(3-fluorophenyl)propanoic acid] (H-[NMeV]V[Dil][Dolaproine][Phe(3-F)]-OH) were 17.4 nM and 13.5 nM.
In the case of `CC[C@H](C)[C@@H]([C@@H](CC(=O)N1CCC[C@H]1[C@H](OC)[C@@H](C)C(=O)N[C@@H](Cc1ccc(Cl)cc1Cl)C(=O)O)OC)N(C)C(=O)[C@@H](NC(=O)[C@@H](NC)C(C)C)C(C)C` [Compound 33, (S)-3-(2,4-dichlorophenyl)-2-((2R,3R)-3-((S)-1-((3R,4S,5S)-4-((S)-N,3-dimethyl-2-((S)-3-methyl-2-(methylamino)butanamido)butanamido)-3-methoxy-5-methylheptanoyl)pyrrolidin-2-yl)-3-methoxy-2-methylpropanamido)propanoic acid] (H-[NMeV]V[Dil][Dolaproine][Phe(2,4-Cl2)]-OH), the IC50 with HepG2 tumor cells was 4.66 nM; with A549 tumor cells, 5 nM.
For `CC[C@H](C)[C@@H]([C@@H](CC(=O)N1CCC[C@H]1[C@H](OC)[C@@H](C)C(=O)N[C@@H](Cc1ccccc1C)C(=O)O)OC)N(C)C(=O)[C@@H](NC(=O)[C@@H](NC)C(C)C)C(C)C` [Compound 34, (S)-2-((2R,3R)-3-((S)-1-((3R,4S,5S)-4-((S)—N,3-dimethyl-2-((S)-3-methyl-2-(methylamino)butanamido)butanamido)-3-methoxy-5-methylheptanoyl)pyrrolidin-2-yl)-3-methoxy-2-methylpropanamido)-3-(o-tolyl)propanoic acid] (H-[NMeV]V[Dil][Dolaproine][Phe(2-Me)]-OH) the same measures were 18.3 nM and 32.3 nM.
For the compound `CC[C@H](C)[C@@H]([C@@H](CC(=O)N1CCC[C@H]1[C@H](OC)[C@@H](C)C(=O)N[C@@H](Cc1cccs1)C(=O)O)OC)N(C)C(=O)[C@@H](NC(=O)[C@@H](NC)C(C)C)C(C)C` [Compound 35, (S)-2-((2R,3R)-3-((S)-1-((3R,4S,5S)-4-((S)—N,3-dimethyl-2-((S)-3-methyl-2-(methylamino)butanamido)butanamido)-3-methoxy-5-methylheptanoyl)pyrrolidin-2-yl)-3-methoxy-2-methylpropanamido)-3-(thiophen-2-yl)propanoic acid] (H-[NMeV]V[Dil][Dolaproine][2Thi]-OH), the values for the IC50 with HepG2 tumor cells and in the assay on A549 tumor cells were 30.6 nM and 18 nM, respectively.
As for Pertuzumab, in assay [1] (D0, 7, D0 = time of first administration), the “Mean tumor volume (mm^3) D0” value is on record as 115.5 mm^3. In assay [1] (D0, 7, D21), the “% T/C D21” value was determined as 42%, the “% tumor inhibition rate D21” value is on record as 58% and the “Mean tumor volume (mm^3) D21” value is 380.1 mm^3.
